The supplement of paper PMC10307832

Columns and labels:
Assay in all cases: relative viability (nuclei count vs DMSO), 5 days (fraction); higher = more cells survive
Kobe2602 + Dasatinib = compound: C1=CC(=CC=C1NC(=S)NNC2=C(C=C(C=C2[N+](=O)[O-])C(F)(F)F)[N+](=O)[O-])F [Kobe2602] + Cc1nc(Nc2ncc(C(=O)Nc3c(C)cccc3Cl)s2)cc(N2CCN(CCO)CC2)n1 [Dasatinib] (partner 0.075 µM)
Method in brief: (§1)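 Values are medians from duplicate plates. Each reflects relative viability, defined as the nuclei count of treated wells over that of vehicle wells. Lung cancer cell lines in 1536-well plates were pin-tool dosed one day after seeding with one drug alone or with a fixed anchor-drug dose plus five library-drug doses (not always all listed) in √10 steps, then fixed, stained and imaged at 4× after 5 days.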

Kobe2602 + Trametinib = compound: C1=CC(=CC=C1NC(=S)NNC2=C(C=C(C=C2[N+](=O)[O-])C(F)(F)F)[N+](=O)[O-])F [Kobe2602] + CC(=O)Nc1cccc(-n2c(=O)n(C3CC3)c(=O)c3c(Nc4ccc(I)cc4F)n(C)c(=O)c(C)c32)c1 [Trametinib] (partner 0.02 µM)
Method in brief: as §1

[1] = compound: COc1cc2nccc(Oc3ccc(NC(=O)C4(C(=O)Nc5ccc(F)cc5)CC4)cc3)c2cc1OC [Cabozantinib] + C[C@]1(O)C[C@@H](c2nc(-c3ccc4ccc(-c5ccccc5)nc4c3)c3c(N)nccn32)C1 [Linsitinib] (partner 1 µM)
Method in brief: as §1

Kobe2602 + OSI-027 = compound: C1=CC(=CC=C1NC(=S)NNC2=C(C=C(C=C2[N+](=O)[O-])C(F)(F)F)[N+](=O)[O-])F [Kobe2602] + COc1cccc2cc(-c3nc([C@H]4CC[C@H](C(=O)O)CC4)n4ncnc(N)c34)[nH]c12 [OSI-027] (partner 0.5 µM)
Method in brief: as §1

## UMC-11
Kobe2602 + Dasatinib; first compound 0.2 µM
  relative viability: 0.49
Kobe2602 + Dasatinib; first compound 0.6325 µM
  relative viability: 0.449
Kobe2602 + Dasatinib; first compound 2 µM
  relative viability: 0.449
Kobe2602 + Dasatinib; first compound 6.325 µM
  relative viability: 0.451
Kobe2602 + Dasatinib; first compound 20 µM
  relative viability: 0.452
Kobe2602 + Trametinib; first compound 0.2 µM
  relative viability: 0.716
Kobe2602 + Trametinib; first compound 0.6325 µM
  relative viability: 0.683
Kobe2602 + Trametinib; first compound 2 µM
  relative viability: 0.751
Kobe2602 + Trametinib; first compound 6.325 µM
  relative viability: 0.747
Kobe2602 + Trametinib; first compound 20 µM
  relative viability: 0.668
[1]; first compound 0.02 µM
  relative viability: 1.12
[1]; first compound 0.06325 µM
  relative viability: 1.04
[1]; first compound 0.2 µM
  relative viability: 1.03
[1]; first compound 0.6325 µM
  relative viability: 0.98
[1]; first compound 2 µM
  relative viability: 1.05
Kobe2602 + OSI-027; first compound 0.2 µM
  relative viability: 0.461
Kobe2602 + OSI-027; first compound 0.6325 µM
  relative viability: 0.537
Kobe2602 + OSI-027; first compound 2 µM
  relative viability: 0.539
Kobe2602 + OSI-027; first compound 6.325 µM
  relative viability: 0.459
Kobe2602 + OSI-027; first compound 20 µM
  relative viability: 0.467
